What was measured:
[1] = tested on: Monographella nivalis (Microdochium nivale); experiment: Monographella nivalis (Microdochium nivale) / liquid culture (foot rot cereals); format: cell-based; conditions: compared to untreated control, growth inhibition determined photometrically 4-5 days after application
[2] = tested on: Mycosphaerella graminicola (Septoria tritici); experiment: Mycosphaerella graminicola (Septoria tritici) / liquid culture (Septoria blotch); format: cell-based; conditions: Zymoseptoria tritici, compared to untreated control, growth inhibition determined photometrically 4-5 days after application
[3] = tested on: Glomerella lagenarium (Colletotrichum lagenarium); experiment: Glomerella lagenarium (Colletotrichum lagenarium) / liquid culture (anthracnose); format: cell-based; conditions: Colletotrichum orbiculare, compared to untreated control, growth inhibition measured photometrically 3-4 days after application
Fusarium culmorum = experiment: microbe, parasite or virus in culture; format: cell-based; conditions: read-out: control of Fusarium culmorum
[4] = tested on: Botryotinia fuckeliana (Botrytis cinerea); experiment: Botryotinia fuckeliana (Botrytis cinerea) / liquid culture (gray mould); format: cell-based; conditions: 72 h, compared to untreated control, growth inhibition determined photometrically 3-4 days after application
[5] = tested on: Magnaporthe grisea (Pyricularia oryzae); experiment: microbe, parasite or virus in culture; format: cell-based; conditions: read-out: control of Magnaporthe grisea
Sclerotinia sclerotiorum = experiment: microbe, parasite or virus in culture; format: cell-based; conditions: read-out: control of Sclerotinia sclerotiorum

## CC1CC(Cc2ccccc2)N=C(c2cnc3c(F)c(F)ccc3c2)O1 (single isomer, unassigned) [E-25, 4-benzyl-2-(7,8-difluoro-3-quinolyl)-6-methyl-5,6-dihydro-4H-1,3-oxazine]
[1]
  inhibition of growth at 20 ppm: ≥ 80%
[2]
  inhibition of growth at 20 ppm: ≥ 70%
[3]
  inhibition of growth at 20 ppm: ≥ 80%
Fusarium culmorum
  inhibition of growth at 20 ppm: ≥ 80%
[4]
  inhibition of growth at 20 ppm: ≥ 80%

## CC1(CCl)CC(Cc2ccccc2)N=C(c2cnc3c(F)c(F)ccc3c2)O1 (stereo not shown) [E-1, 4-benzyl-6-(chloromethyl)-2-(7,8-difluoro-3-quinolyl)-6-methyl-4,5-dihydro-1,3-oxazine]
[1]
  inhibition of growth at 20 ppm: ≥ 80%
[2]
  inhibition of growth at 20 ppm: ≥ 70%
Fusarium culmorum
  inhibition of growth at 20 ppm: ≥ 80%
[4]
  inhibition of growth at 20 ppm: ≥ 80%

## CC1(C)CC(Cc2ccccc2)N=C(c2cnc3c(C#N)cccc3c2)O1 (stereo not shown) [E-2, 3-(4-benzyl-6,6-dimethyl-4,5-dihydro-1,3-oxazin-2-yl)quinoline-8-carbonitrile]
[1]
  inhibition of growth at 20 ppm: ≥ 80%
[2]
  inhibition of growth at 20 ppm: ≥ 70%
Fusarium culmorum
  inhibition of growth at 20 ppm: ≥ 80%

## CC1(C)CC(Cc2ccccc2)N=C(c2cnc3c(Cl)cccc3c2)O1 (stereo not shown) [E-3, 4-benzyl-2-(8-chloro-3-quinolyl)-6,6-dimethyl-4,5-dihydro-1,3-oxazine]
[1]
  inhibition of growth at 20 ppm: ≥ 80%
[2]
  inhibition of growth at 20 ppm: ≥ 70%
other
  melting point: 150 to 152 °C
[4]
  inhibition of growth at 20 ppm: ≥ 80%

## Cc1cccc2cc(C3=NC(Cc4ccccc4)CC(C)(C)O3)cnc12 (stereo not shown) [E-4, 4-benzyl-6,6-dimethyl-2-(8-methyl-3-quinolyl)-4,5-dihydro-1,3-oxazine]
[1]
  inhibition of growth at 20 ppm: ≥ 80%
[2]
  inhibition of growth at 20 ppm: ≥ 70%
other
  melting point: 120 to 122 °C
[4]
  inhibition of growth at 20 ppm: ≥ 80%

## CC1(C)CC(Cc2ccccc2)N=C(c2cnc3ccccc3c2)O1 (stereo not shown) [E-5, 4-benzyl-6,6-dimethyl-2-(3-quinolyl)-4,5-dihydro-1,3-oxazine]
[1]
  inhibition of growth at 20 ppm: ≥ 80%
[2]
  inhibition of growth at 20 ppm: ≥ 70%
[3]
  inhibition of growth at 20 ppm: ≥ 80%
Fusarium culmorum
  inhibition of growth at 20 ppm: ≥ 80%
[4]
  inhibition of growth at 20 ppm: ≥ 80%

## CC1(C)CC(Cc2ccccc2)N=C(c2cnc3c(F)c(F)ccc3c2)S1 (stereo not shown) [E-6, 4-benzyl-2-(7,8-difluoro-3-quinolyl)-6,6-dimethyl-4,5-dihydro-1,3-thiazine]
[1]
  inhibition of growth at 20 ppm: ≥ 80%
[3]
  inhibition of growth at 20 ppm: ≥ 80%
Fusarium culmorum
  inhibition of growth at 20 ppm: ≥ 80%
other
  melting point: 153 to 155 °C
[4]
  inhibition of growth at 20 ppm: ≥ 80%

## CC1(Cc2ccccc2)CC(C)(C)SC(c2cnc3c(F)cccc3c2)=N1 (stereo not shown) [E-7, 4-benzyl-2-(8-fluoro-3-quinolyl)-4,6,6-trimethyl-5H-1,3-thiazine]
[5]
  inhibition of growth at 20 ppm: ≥ 80%
Sclerotinia sclerotiorum
  inhibition of growth at 20 ppm: ≥ 80%
[1]
  inhibition of growth at 20 ppm: ≥ 80%
[2]
  inhibition of growth at 20 ppm: ≥ 70%
[3]
  inhibition of growth at 20 ppm: ≥ 80%
Fusarium culmorum
  inhibition of growth at 20 ppm: ≥ 80%
[4]
  inhibition of growth at 20 ppm: ≥ 80%

## CC1(C)CC(Cc2ccccc2)N=C(c2cnc3c(F)c(F)ccc3c2)O1 (stereo not shown) [E-8, 4-benzyl-2-(7,8-difluoro-3-quinolyl)-6,6-dimethyl-4,5-dihydro-1,3-oxazine]
[3]
  inhibition of growth at 20 ppm: ≥ 80%
other
  melting point: 93 to 96 °C

## CCC1(C)CC(C)(Cc2ccccc2)N=C(c2cnc3c(F)cccc3c2)O1 (stereo not shown) [E-9, 4-benzyl-6-ethyl-2-(8-fluoro-3-quinolyl)-4,6-dimethyl-5H-1,3-oxazine]
[5]
  inhibition of growth at 20 ppm: ≥ 80%
Sclerotinia sclerotiorum
  inhibition of growth at 20 ppm: ≥ 80%
[1]
  inhibition of growth at 20 ppm: ≥ 80%
[2]
  inhibition of growth at 20 ppm: ≥ 70%
[3]
  inhibition of growth at 20 ppm: ≥ 80%
Fusarium culmorum
  inhibition of growth at 20 ppm: ≥ 80%
[4]
  inhibition of growth at 20 ppm: ≥ 80%

## C[C@@]1(Cc2ccccc2)C[C@](C)(CCl)OC(c2cnc3c(F)cccc3c2)=N1 [E-11, (4R,6R)-4-benzyl-6-(chloromethyl)-2-(8-fluoro-3-quinolyl)-4,6-dimethyl-5H-1,3-oxazine]
[5]
  inhibition of growth at 20 ppm: ≥ 80%
[1]
  inhibition of growth at 20 ppm: ≥ 80%
[2]
  inhibition of growth at 20 ppm: ≥ 70%
[3]
  inhibition of growth at 20 ppm: ≥ 80%
Fusarium culmorum
  inhibition of growth at 20 ppm: ≥ 80%
[4]
  inhibition of growth at 20 ppm: ≥ 80%

## CC1(C)CC(Cc2ccccc2)(C(F)(F)F)N=C(c2cnc3c(F)cccc3c2)O1 (stereo not shown) [E-12, 4-benzyl-2-(8-fluoro-3-quinolyl)-6,6-dimethyl-4-(trifluoromethyl)-5H-1,3-oxazine]
[5]
  inhibition of growth at 20 ppm: ≥ 80%
[1]
  inhibition of growth at 20 ppm: ≥ 80%
[3]
  inhibition of growth at 20 ppm: ≥ 80%
[4]
  inhibition of growth at 20 ppm: ≥ 80%

## CC1(C)CC(C)(C(F)(F)c2ccccc2)N=C(c2cnc3c(F)cccc3c2)O1 (stereo not shown) [E-14, 4-[difluoro(phenyl)methyl]-2-(8-fluoro-3-quinolyl)-4,6,6-trimethyl-5H-1,3-oxazine]
[5]
  inhibition of growth at 20 ppm: ≥ 80%
[1]
  inhibition of growth at 20 ppm: ≥ 80%
[2]
  inhibition of growth at 20 ppm: ≥ 70%
[3]
  inhibition of growth at 20 ppm: ≥ 80%
other
  melting point: 101 to 105 °C
[4]
  inhibition of growth at 20 ppm: ≥ 80%

## Cc1c(C2=NC(C)(Cc3ccccc3)CC(C)(C)O2)cnc2c(F)cccc12 (stereo not shown) [E-15, 4-benzyl-2-(8-fluoro-4-methyl-3-quinolyl)-4,6,6-trimethyl-5H-1,3-oxazine]
[5]
  inhibition of growth at 20 ppm: ≥ 80%
[1]
  inhibition of growth at 20 ppm: ≥ 80%
[2]
  inhibition of growth at 20 ppm: ≥ 70%
[3]
  inhibition of growth at 20 ppm: ≥ 80%
[4]
  inhibition of growth at 20 ppm: ≥ 80%

## CC1(Cc2ccccc2)CC(C)(C)OC(c2cnc3c(F)cccc3c2)=N1 (stereo not shown) [E-17, 4-benzyl-2-(8-fluoro-3-quinolyl)-4,6,6-trimethyl-5H-1,3-oxazine]
[5]
  inhibition of growth at 20 ppm: ≥ 80%
[1]
  inhibition of growth at 20 ppm: ≥ 80%
[2]
  inhibition of growth at 20 ppm: ≥ 70%
[3]
  inhibition of growth at 20 ppm: ≥ 80%
Fusarium culmorum
  inhibition of growth at 20 ppm: ≥ 80%
other
  melting point: 115 to 116 °C
[4]
  inhibition of growth at 20 ppm: ≥ 80%

## CC1(C)CC(Cc2ccc(F)cc2)N=C(c2cnc3c(F)c(F)ccc3c2)O1 (stereo not shown) [E-18, 2-(7,8-difluoro-3-quinolyl)-4-[(4-fluorophenyl)methyl]-6,6-dimethyl-4,5-dihydro-1,3-oxazine]
[5]
  inhibition of growth at 20 ppm: ≥ 80%
Sclerotinia sclerotiorum
  inhibition of growth at 20 ppm: ≥ 80%
[1]
  inhibition of growth at 20 ppm: ≥ 80%
[2]
  inhibition of growth at 20 ppm: ≥ 70%
other
  melting point: 118 to 121 °C
[4]
  inhibition of growth at 20 ppm: ≥ 80%

## Fc1ccc2cc(C3=NC(Cc4ccccc4)CC(CI)O3)cnc2c1F (stereo not shown) [E-26, 4-benzyl-2-(7,8-difluoro-3-quinolyl)-6-(iodomethyl)-5,6-dihydro-4H-1,3-oxazine]
Fusarium culmorum
  inhibition of growth at 20 ppm: ≥ 80%
other
  melting point: 137 to 139 °C
[4]
  inhibition of growth at 20 ppm: ≥ 80%

## N#Cc1c(F)ccc2cc(C3=NC(Cc4ccccc4)CC4(CCCC4)O3)cnc12 (stereo not shown) [E-27, 3-(9-benzyl-6-oxa-8-azaspiro[4.5]dec-7-en-7-yl)-7-fluoro-quinoline-8-carbonitrile]
[4]
  inhibition of growth at 20 ppm: ≥ 80%

## CC1(C)CC(Cc2ccccc2)N=C(c2cnc3c(C#N)c(F)ccc3c2)O1 (stereo not shown) [E-28, 3-(4-benzyl-6,6-dimethyl-4,5-dihydro-1,3-oxazin-2-yl)-7-fluoro-quinoline-8-carbonitrile]
[5]
  inhibition of growth at 20 ppm: ≥ 80%
[1]
  inhibition of growth at 20 ppm: ≥ 80%
other
  melting point: 126 to 133 °C
[4]
  inhibition of growth at 20 ppm: ≥ 80%

## CC1(C)CC(Cc2ccccc2)N=C(c2cnc3c(F)c(Cl)ccc3c2)O1 (stereo not shown) [E-29, 4-benzyl-2-(7-chloro-8-fluoro-3-quinolyl)-6,6-dimethyl-4,5-dihydro-1,3-oxazine]
[1]
  inhibition of growth at 20 ppm: ≥ 80%
[2]
  inhibition of growth at 20 ppm: ≥ 70%
[3]
  inhibition of growth at 20 ppm: ≥ 80%
other
  melting point: 135 to 137 °C

## CC1(C)CC(Cc2ccccc2)N=C(c2cc3cccc(F)c3nc2F)O1 (stereo not shown) [E-30, 4-benzyl-2-(2,8-difluoro-3-quinolyl)-6,6-dimethyl-4,5-dihydro-1,3-oxazine]
[5]
  inhibition of growth at 20 ppm: ≥ 80%
[1]
  inhibition of growth at 20 ppm: ≥ 80%
[2]
  inhibition of growth at 20 ppm: ≥ 70%
Fusarium culmorum
  inhibition of growth at 20 ppm: ≥ 80%
other
  melting point: 105 to 107 °C
[4]
  inhibition of growth at 20 ppm: ≥ 80%

## CC1(C)CC(Cc2ccccc2)N=C(c2cnc3cc(F)ccc3c2)O1 (stereo not shown) [E-32, 4-benzyl-2-(7-fluoro-3-quinolyl)-6,6-dimethyl-4,5-dihydro-1,3-oxazine]
[1]
  inhibition of growth at 20 ppm: ≥ 80%
[2]
  inhibition of growth at 20 ppm: ≥ 70%
Fusarium culmorum
  inhibition of growth at 20 ppm: ≥ 80%
[4]
  inhibition of growth at 20 ppm: ≥ 80%

## CC1(C)CC(Cc2ccccc2)N=C(c2cnc3cc(Cl)ccc3c2)O1 (stereo not shown) [E-33, 4-benzyl-2-(7-chloro-3-quinolyl)-6,6-dimethyl-4,5-dihydro-1,3-oxazine]
[1]
  inhibition of growth at 20 ppm: ≥ 80%
[2]
  inhibition of growth at 20 ppm: ≥ 70%

## CC1(C)CC(Cc2ccccc2)N=C(c2cnc3c(F)c(C#N)ccc3c2)O1 (stereo not shown) [E-34, 3-(4-benzyl-6,6-dimethyl-4,5-dihydro-1,3-oxazin-2-yl)-8-fluoro-quinoline-7-carbonitrile]
[1]
  inhibition of growth at 20 ppm: ≥ 80%
[3]
  inhibition of growth at 20 ppm: ≥ 80%

## Fc1ccc2cc(C3=NC(Cc4ccccc4)CC4(CCCC4)O3)cnc2c1Cl (stereo not shown) [E-35, 9-benzyl-7-(8-chloro-7-fluoro-3-quinolyl)-6-oxa-8-azaspiro[4.5]dec-7-ene]
[1]
  inhibition of growth at 20 ppm: ≥ 80%
[2]
  inhibition of growth at 20 ppm: ≥ 70%
other
  melting point: 150 to 151 °C
[4]
  inhibition of growth at 20 ppm: ≥ 80%

## CC1(C)CC(Cc2ccccc2)N=C(c2cc3cccc(F)c3nc2Cl)O1 (stereo not shown) [E-36, 4-benzyl-2-(2-chloro-8-fluoro-3-quinolyl)-6,6-dimethyl-4,5-dihydro-1,3-oxazine]
[2]
  inhibition of growth at 20 ppm: ≥ 70%

## CC1(Cc2ccccc2)CC(C)(C)OC(c2cnc3c(F)cccc3c2)=N1 (stereo not shown) [F-1]
other
  melting point: 109 to 111 °C

## CC1(Cc2ccccc2)CC(C)(C)OC(c2cnc3c(F)cccc3c2)=N1 (stereo not shown) [F-2]
Sclerotinia sclerotiorum
  inhibition of growth at 20 ppm: ≥ 80%
other
  melting point: 111 to 112 °C

## CC1(C)CC(Cc2ccccc2)N=C(c2cnc3c(F)c(F)ccc3c2)O1 (stereo not shown) [F-6]
other
  melting point: 102 to 105 °C

Reference: patent publication US12012399B2, “Microbiocidal quinoline dihydro-(thiazine)oxazine derivatives” (priority 2018, dated 2024)
